This passage reports TGI and GI50 results from PubChem BioAssay (NCI).

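All cell lines were grown in 96-well plates and treated with compound for 48 hours. The concentration for 50% growth inhibition is given as GI50. Definition used: TGI = concentration required for complete inhibition of growth.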 Bounds are passed on as bounds.

Holding throughout (experiment): NCI tumour cell line growth inhibition, 48 h
Assay [1] relates to DU-145 prostate.
The test system of assay [2] is HCT-116 colon.
Assay [3] deals with HCT-15 colon.
In assay [4] the test system is IGROV1 ovarian.
Assay [5] deals with MALME-3M melanoma.
In assay [6] the test system is MDA-MB-231 breast.
Assay [7] deals with MDA-MB-435.
Assay [8] has as its system OVCAR-8 ovarian.
Assay [9] has as its system SF-268 CNS.
Assay [10] concerns HOP-92 NSCLC.

For the compound `O=C(CNCc1ccccc1)Oc1c(Cl)c(Cl)c(Cl)c(Cl)c1Cl`, the TGI is 44.3 µM in assay [1]; over 100 µM in [2]; 61 µM in assay [3]; over 100 µM in assay [4]; 65.3 µM in [5]; 69.1 µM in assay [6]. For the same compound, the TGI in [7] is over 100 µM; in assay [8] it was 48.8 µM; in [9], over 100 µM.
Take `O=C(OCc1ccccc1)C(Cc1ccccc1)N(Cc1ccccc1)Cc1ccccc1` (stereo not drawn): the TGI in [2], in assay [3], in [10], in assay [4], in assay [5] and in assay [8] was over 100 µM throughout. For the same compound, in assay [9], the TGI is over 100 µM.
As for `COc1cc(CC(C)N)ccc1O` (stereo not drawn), the TGI in assay [1], in [2], in [3], in assay [10], in assay [4] and in assay [5] was over 100 µM in each case. Also, the TGI in [8] and in [9] was over 100 µM each time.
As to `CCCCC/C(C=O)=C\c1ccccc1`, the TGI in [1], in assay [2], in [3], in assay [10], in assay [4] and in [6] was over 100 µM throughout. Moreover, the TGI in [7], in assay [8] and in [9] was over 100 µM each time.
Take `O=C([CH-]C(=O)c1ccccc1)c1ccccc1.O=C([CH-]C(=O)c1ccccc1)c1ccccc1.[O]=[U+2]=[O]`: the GI50 in assay [2] was 2990 nM; in assay [3], 2780 nM; in assay [10] it was 2900 nM; in assay [4], 3.33 µM; in assay [8] it was 3.02 µM. For the same compound, the TGI in [2] is 15.9 µM; in assay [3] it was 11.1 µM; in assay [10] it was 6.18 µM; in assay [4] it was 12.6 µM; in assay [8], over 100 µM.
With `COc1ccc(N=NC(=Nc2ccc(F)cc2)c2ccc(N(CCC#N)CCC#N)cc2)cc1`, the TGI was over 100 µM in assay [1]; over 100 µM in assay [2]; over 100 µM in assay [3]; 72.9 µM in assay [10]; 77.7 µM in assay [4]; 52.8 µM in assay [6]. Moreover, the TGI in assay [7], in assay [8] and in assay [9] was over 100 µM throughout.
`COC(=O)C1(Cc2ccc3c(c2)CCC3)Cc2cc3c(cc2C1)CCC3`: the TGI in [1], in assay [2], in assay [3], in [10], in [4] and in assay [6] was over 100 µM throughout. Moreover, the TGI in [7], in assay [8] and in assay [9] was over 100 µM each time.
Consider `CCOC(=O)C1CN(C2CC2)CCC1=O` (stereo not drawn), for which the TGI in assay [1], in assay [2], in [3], in assay [4], in assay [5] and in assay [6] was over 100 µM each time. Also, the TGI in assay [7], in assay [8] and in [9] was over 100 µM in each case.
As for `Cc1ccc(-c2c(C#N)c(-c3ccc([N+](=O)[O-])cc3)c(C#N)c(=O)n2NS(=O)(=O)c2ccccc2)cc1`, the TGI in assay [2] is over 100 µM; in assay [3], over 100 µM; in [10], 85.9 µM; in [4], over 100 µM; in assay [5], over 100 µM; in [6], over 100 µM. Moreover, the TGI in [7], in assay [8] and in assay [9] was over 100 µM each time.
Take `CC1(C)[C@@H](Cn2cnc3c(Cl)nc(N)nc32)CC[C@@]1(C)CO`: the TGI is over 100 µM in assay [1]; over 100 µM in [2]; over 100 µM in [3]; over 100 µM in assay [10]; over 100 µM in assay [6]; 64.2 µM in assay [7]. In assay [9], this compound registered a TGI of 43.3 µM.
As for `CN1COCc2cc3cc4c(cc3nc21)OCCO4`, the TGI in assay [2], in assay [3], in assay [10], in [4], in assay [5] and in [6] was over 100 µM in each case. In addition, the TGI in assay [7], in [8] and in assay [9] was over 100 µM throughout.
On to `COc1ccc2c(c1)CCN=C2c1ccccc1CCCCl`, for which the TGI is over 100 µM in assay [1]; 61.3 µM in assay [2]; 74.1 µM in [3]; over 100 µM in assay [10]; over 100 µM in [4]; 63.7 µM in assay [6]. The TGI in assay [7], in assay [8] and in assay [9] was over 100 µM each time.
With `c1csc(-c2c3ccc(=[N+]4CCCCC4)cc-3oc3cc(N4CCCCC4)ccc23)c1`, the values for the GI50 in assay [1], in assay [10] and in assay [5] were 57.8 nM, 127 nM and 27 nM, respectively. For the same compound, the TGI is 0.201 µM in assay [1], 0.309 µM in assay [10] and 0.0822 µM in assay [5].
In the case of `Cc1c(C#N)c(N)n(C2OCC(O)C(O)C2O)c(=S)c1C#N` (stereo not drawn), the TGI in [1], in [3], in assay [4], in [5], in assay [6] and in [7] was over 100 µM in each case. Also, the TGI in assay [8] and in [9] was over 100 µM throughout.
With `CC(C)CCn1nc(N)c2nc3ccccc3nc21`, the TGI in assay [2], in assay [10], in [4], in [5], in [7] and in assay [8] was over 100 µM each time. This compound displayed a TGI in assay [9] of over 100 µM.
Take `CCN1C(=O)N(CC)C2Nn3c(s/c(=C4\C(=O)N(C)c5ccccc54)c3=O)=NC21` (stereo not drawn): the GI50 in [2] is 1950 nM; in assay [3], 1270 nM; in assay [10] it was 69500 nM; in assay [4], 3.37 µM; in assay [5], 3900 nM; in assay [6], 3.42 µM. The GI50 in assay [8] is 4.3 µM; in assay [9], over 100 µM. Further, the TGI in [2], in assay [3], in [10], in assay [4], in [5] and in [6] was over 100 µM throughout. Moreover, the TGI in [8] and in assay [9] was over 100 µM each time.
Turning to `N#Cc1c(C#N)c(-c2ccccc2)n(-c2ccccc2)c1N`, the TGI in [1], in assay [2], in assay [3], in [4], in [5] and in [6] was over 100 µM each time. Also, the TGI in assay [7], in [8] and in assay [9] was over 100 µM throughout.
For `N#CC(=N)c1ncn(-c2ccccc2N)c1N`, the TGI in assay [1], in assay [2], in [3], in assay [4], in assay [5] and in assay [6] was over 100 µM in each case. Also, the TGI in assay [7], in assay [8] and in assay [9] was over 100 µM throughout.
Consider `CCOC(=O)C1(C(=O)OCC)CCCN1C(=O)[C@H](CNC(=O)OC(C)(C)C)NC(=O)OCc1ccccc1`, for which the TGI in assay [1], in assay [2], in [3], in assay [4], in assay [6] and in assay [7] was over 100 µM throughout. The TGI in assay [9] was over 100 µM.
In the case of `C[C@]12CC[C@H](O)C=C1CC[C@@H]1[C@@H]2CC[C@]2(C)C(c3ccc(=O)oc3)CC[C@]12O` (stereo partly drawn), the TGI is 0.0674 µM in [2]; 0.0803 µM in [3]; 0.0448 µM in assay [10]; 0.164 µM in assay [4]; 0.014 µM in [5]; 0.0527 µM in assay [8]. This compound returned a TGI in assay [9] of 0.0269 µM.
Regarding `CN(C)P(=O)(Oc1occc1C(O)Cc1ccccc1)N(C)C` (stereo not drawn), the TGI in [2], in assay [3], in assay [5], in assay [6], in assay [7] and in [8] was over 100 µM each time. Also, the TGI in [9] was over 100 µM.
For `CC(C)(C)C(=O)C(Cc1ccccc1)C(=O)C(C)(C)C`, the TGI in [1], in [2], in assay [3], in [10], in [4] and in assay [5] was over 100 µM throughout. Also, the TGI in assay [6], in assay [8] and in assay [9] was over 100 µM each time.
Regarding `CCCOC(=O)NC(C)C(=O)NC(CCC(=O)NC(CCCC(N)C(=O)O)C(=O)NC(C)C(=O)O)C(=O)O` (stereo not drawn), the TGI was 65.3 µM in assay [1]; over 100 µM in assay [2]; 34.6 µM in [3]; 77.4 µM in assay [10]; over 100 µM in [4]; 50.8 µM in assay [6]. In addition, the TGI in [7] was over 100 µM; in assay [8] it was 33.9 µM; in [9] it was 42.3 µM.
Consider `O=C1c2cccc(NCCNCCO)c2C(=O)c2cccc(NCCNCCO)c21`, for which the TGI in [1] turned out to be 5.91 µM; in assay [2], 4.77 µM; in assay [3], 19 µM; in [10], 2.9 µM; in assay [4], 6.39 µM; in assay [5], 3.65 µM. The TGI in assay [8] was 5.97 µM; in assay [9], 2.15 µM.
For `NC(=O)c1ncn2c1NC(=O)CC2`, the TGI in [2], in assay [3], in assay [10], in assay [4], in assay [5] and in assay [8] was over 100 µM throughout. This compound also came in with a TGI in assay [9] of over 100 µM.
Take `COC(=O)C1(Cc2ccc3c(c2)CCC3)Cc2ccccc2C1=O` (stereo not drawn): the TGI in [1] was 67.8 µM; in assay [2], 46.6 µM; in assay [3] it was over 100 µM; in assay [4], over 100 µM; in [5], over 100 µM; in assay [6] it was over 100 µM. The TGI in assay [7] is 18 µM; in assay [8], over 100 µM; in [9] it was 70.7 µM.
Take `O=C(O)CSC(NC(=O)C(C(F)(F)F)C(F)(F)F)(C(F)(F)F)C(F)(F)F`: the TGI in [2] was over 100 µM; in assay [3], over 100 µM; in [4], over 100 µM; in assay [7] it was over 100 µM; in assay [8], 83.3 µM; in [9], over 100 µM.
Turning to `COc1cc(CNc2nc3cc(C(F)(F)F)ccc3nc2-c2ccccc2)cc(OC)c1OC`, the TGI in [1] is over 100 µM; in assay [2], over 100 µM; in assay [3], 56 µM; in assay [4], over 100 µM; in [5], 72 µM; in assay [6], 67.5 µM. For the same compound, the TGI in [7], in assay [8] and in [9] was over 100 µM in each case.
Turning to `COc1cc2c(c(O)c1O)-c1ccc(OC)c(=O)cc1C(NC(C)=O)CC2` (stereo not drawn), the TGI in assay [2] was over 62.8 µM; in assay [3], over 100 µM; in assay [10] it was 31.1 µM; in assay [4] it was over 100 µM; in assay [5], over 100 µM; in assay [8], over 100 µM. In addition, the TGI in assay [9] is over 100 µM.
Regarding `O=C(O)CC(NC(=O)/C(=C/c1ccccc1O)NC(=O)c1ccccc1)C(=O)O` (stereo not drawn), the TGI in assay [2], in assay [3], in assay [4], in assay [5], in assay [6] and in [7] was over 100 µM each time. In addition, the TGI in assay [8] is over 100 µM.
For the compound `COC(=O)C1=C(O)C(C(=O)OC)[C@@]2(O)[C@@H](C(=O)OC)[C@H](C)[C@@H](C)[C@@H]1[C@@H]2C(=O)OC` (stereo partly drawn), the TGI in assay [1] was over 100 µM; in assay [2] it was over 100 µM; in [3], over 100 µM; in assay [5], over 100 µM; in assay [6], over 100 µM; in assay [7], 39.2 µM. The compound also returned a TGI in [9] of over 100 µM.
